This note sets out measurements from ChEMBL document CHEMBL4330132, “5-Keto-3-cyano-2,4-diaminothiophenes as selective maternal embryonic leucine zipper kinase inhibitors” (Bioorg Med Chem Lett, 2019).

Converted amounts (≈) assume the structure as drawn.

System in the first data set: not listed separately
Description: Lipophilicity, log P of the compound. In kind it is physicochemical. To be noted: octanol/water.
Turning to `N#Cc1c(NCCN2CCNCC2)sc(C(=O)c2ccc(Br)s2)c1N`, the logP (in general, a log measure of how a compound divides between an organic and an aqueous phase) is 3.

A further data set addresses T1, Maternal embryonic leucine zipper kinase (Homo sapiens, UniProt Q14680). Put plainly: Inhibition of recombinant human MELK expressed in Escherichia coli at 5 uM using ZIPtide as substrate measured after 0.5 hrs by ADP-Glo assay relative to control.
Settings: not given
(In general: ADP-Glo turns the ADP formed in a reaction into a luminescent signal.)
Target sequence in this assay (Q14680 whole entry, looked up): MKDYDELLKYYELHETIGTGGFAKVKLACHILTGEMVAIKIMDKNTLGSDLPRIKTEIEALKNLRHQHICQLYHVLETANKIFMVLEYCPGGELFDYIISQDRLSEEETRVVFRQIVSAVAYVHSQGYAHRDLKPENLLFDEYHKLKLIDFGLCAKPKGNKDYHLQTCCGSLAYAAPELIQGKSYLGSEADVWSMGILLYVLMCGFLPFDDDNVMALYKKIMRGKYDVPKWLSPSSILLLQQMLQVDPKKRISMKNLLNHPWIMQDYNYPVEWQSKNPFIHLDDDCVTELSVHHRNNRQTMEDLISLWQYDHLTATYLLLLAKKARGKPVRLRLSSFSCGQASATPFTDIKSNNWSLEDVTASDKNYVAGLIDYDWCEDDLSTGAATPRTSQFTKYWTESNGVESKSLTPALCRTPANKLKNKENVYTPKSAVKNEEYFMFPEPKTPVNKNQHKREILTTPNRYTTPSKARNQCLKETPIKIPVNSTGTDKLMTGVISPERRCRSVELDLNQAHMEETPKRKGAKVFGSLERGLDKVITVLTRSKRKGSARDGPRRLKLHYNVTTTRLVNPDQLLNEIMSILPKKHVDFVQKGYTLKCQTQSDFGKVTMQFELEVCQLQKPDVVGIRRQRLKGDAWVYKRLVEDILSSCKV
In the case of `Cc1ccc(C(=O)c2sc(NC(C)C)c(C#N)c2N)cc1`, the inhibition (usually how much of the control response was suppressed) worked out at 49%. On the same count and under the same terms, the value for `CC(C)Nc1sc(C(=O)c2ccccc2)c(N)c1C#N` was 47%; that for `CC(C)Nc1nc(N)c(C(=O)c2ccc(Cl)s2)s1` was 46%.

System in a further data set: not listed separately
Description: Kinetic solubility of the compound in pH 7.4 phosphate buffer. In kind it is physicochemical. Conditions: read-out: Kinetic_solubility.
As for `N#Cc1c(NCCN2CCNCC2)sc(C(=O)c2ccc(Br)s2)c1N`, the solubility kinetic stood at 189 µg/mL (≈ 429 µM).

Another data set addresses T1, Maternal embryonic leucine zipper kinase. Description: Inhibition of recombinant human MELK expressed in Escherichia coli using ZIPtide as substrate measured after 0.5 hrs by ADP-Glo assay.
Settings: not given
Target sequence in this assay (Q14680 whole entry): as the sequence (Q14680 whole entry, looked up) above
Take `CC(C)Nc1sc(C(=O)c2cccnc2)c(N)c1C#N`: the IC50 (in general, the point on the concentration scale where inhibition reaches its midpoint) was above 5000 nM. The same measure, in the same setting: next, `CC(C)Nc1sc(C(=O)c2ccc3c(c2)OCO3)c(N)c1C#N`: 1120 nM; `Cc1ccc(C(=O)c2sc(NC(C)C)c(C#N)c2N)s1`: 494 nM. On the same count and under the same terms, the value for `N#Cc1c(NCc2ccccc2)sc(C(=O)c2ccc(Cl)s2)c1N` was above 5000 nM; that for `N#Cc1c(NCCN2CCNCC2)sc(C(=O)c2ccc(Br)s2)c1N` was 98 nM. For the compound `COc1ccc(C(=O)c2sc(NC(C)C)c(C#N)c2N)cc1`, the IC50 is 4130 nM. The same measure, in the same setting: next, `CC(C)Nc1sc(C(=O)c2ccc(-c3cccc(O)c3)s2)c(N)c1C#N`: 350 nM. On the same count and under the same terms, the value for `N#Cc1ccccc1Nc1sc(C(=O)c2ccc(Br)s2)c(N)c1C#N` was above 5000 nM; that for `COc1ccc(C(=O)c2sc(NC(C)C)c(C#N)c2N)cc1OC` was 1770 nM. Still for that read-out and setting: next, `CC(C)Nc1sc(C(=O)c2ccc(Br)s2)c(N)c1C#N`: 122 nM; `CC(C)Nc1sc(C(=O)c2cc(Cl)cs2)c(N)c1C#N`: 575 nM; `COc1ccc(C(=O)c2sc3nc(C)ccc3c2N)cc1OC`: above 5000 nM. As for `CC(C)Nc1sc(C(=O)c2ccc(Cl)s2)c(N)c1C(N)=O`, the IC50 is 388 nM.

For the compound `CC(C)Nc1sc(C(=O)c2ccc(Cl)s2)cc1C#N`, the IC50 was above 5000 nM.

For the compound `CC(C)Nc1sc(C(=O)c2ccc(-c3ccc(O)cc3)s2)c(N)c1C#N`, the IC50 is 241 nM.

Turning to `C=CCNc1sc(C(=O)c2ccc(Cl)s2)c(N)c1C#N`, the IC50 is 638 nM. With `N#Cc1c(NCC(N)=O)sc(C(=O)c2ccc(Br)s2)c1N`, the IC50 is 540 nM. `CC(C)Nc1sc(C(=O)c2ccc(-c3ccncc3)s2)c(N)c1C#N`: the IC50 came to 269 nM. Same read-out and setting: the value for `CC(C)Nc1sc(C(=O)c2cccc(C#N)c2)c(N)c1C#N` was above 5000 nM; that for `N#Cc1c(NCCO)sc(C(=O)c2ccc(Br)s2)c1N` was 313 nM; that for `CCNc1sc(C(=O)c2cccs2)c(N)c1C#N` was 1190 nM. Same read-out and setting: next, `CC(C)Nc1sc(C(=O)c2ccc(I)s2)c(N)c1C#N`: 112 nM. Consider `CC(C)Nc1sc(C(=O)c2ccncc2)c(N)c1C#N`, for which the IC50 was above 5000 nM. Take `CC(C)Nc1nc(N)c(C(=O)c2ccc(Cl)s2)s1`: the IC50 was above 5000 nM. The same measure, in the same setting: the value for `CC(C)Nc1sc(C(=O)c2ccc(C#N)cc2)c(N)c1C#N` was above 5000 nM; that for `CCNc1sc(C(=O)c2ccc(Cl)s2)c(N)c1C#N` was 222 nM; that for `CC(=O)c1sc(NC(C)C)c(C#N)c1N` was above 5000 nM. With `CC(C)N(C)c1sc(C(=O)c2ccc(Cl)s2)c(N)c1C#N`, the IC50 amounted to 1420 nM. Still for that read-out and setting: next, `N#Cc1c(NCCCN)sc(C(=O)c2ccc(Br)s2)c1N`: 141 nM; `N#Cc1c(Nc2ccccc2F)sc(C(=O)c2ccc(Cl)s2)c1N`: 707 nM. Turning to `CC(C)Nc1sc(C(=O)c2cc(Br)cs2)c(N)c1C#N`, the IC50 was 599 nM. Turning to `Cc1ccc(C(=O)c2sc3nc(C)ccc3c2N)cc1`, the IC50 was above 5000 nM. The same measure, in the same setting: the value for `C=CCNc1sc(C(=O)C(C)(C)C)c(N)c1C#N` was above 5000 nM; that for `CC(C)Nc1sc(C(=O)c2ccn[nH]2)c(N)c1C#N` was 1700 nM. The same measure, in the same setting: next, `CC(C)Nc1sc(C(=O)c2ccco2)c(N)c1C#N`: 1350 nM.

System in a further data set: not listed separately
Put plainly: Stability in mouse liver microsomes assessed as parent compound remaining after 1 hr. The class given is ADME, Microsome. To be noted: read-out: Stability.
For `N#Cc1c(NCCN2CCNCC2)sc(C(=O)c2ccc(Br)s2)c1N`, the remaining at 1 h worked out at 81%.
